Reference: US6696600B2, “L-DOPA ethyl ester salts and uses thereof” (priority 2001, dated 2004)
Where two headings read alike, the source gives them in different places.

Assays:
[1] = Hygroscopicity test: weight gain of solid sample in humidity chamber at RH=80%; type: physicochemical; conditions: for hygroscopicity (in words): RH=80% screening; for weight gain in hygroscopicity test / appearance after exposure in a humidity chamber: RH=80%; for weight gain in hygroscopicity test: T=20±2° C., during 24 hrs
Description: There are many methods of quantitative evaluation of hygroscopicity of solid products without measuring the hygroscopic point. The most widely used method is based on measuring the weight gain of a solid sample in a humidity chamber. […] This method was used for screening the hygroscopicity of several LDEE salts. It also provides a comparison of the hygroscopic properties of different solids by comparison of water absorption rates under the same conditions.

[2] = Stability of dihydrates, impurity profile (HPLC), 8 days at 65° C.; type: physicochemical
Procedure: The stability of succinate dihydrate and fumarate dihydrate were investigated under the following test conditions: 8 days at 65° C. in glass vial (air) (Table 1).

[3] = pH of water solution; type: physicochemical
[4] = pKa and delta pKa (pKa LDEE − pKa acid); type: physicochemical
Description: Preparation and selection of salts that have different physical properties are detailed in the literature. […]. PKa of LDEE free base is known to be 7.24 [8]. […]. This fact is illustrated in Example 1 below, in which the crystallization of LDEE palmitate was attempted. After dissolution of LDEE base and palmitic acid in absolute alcohol, the solution was cooled, and instead of forming a new salt, pure palmitic acid was crystallized out, and no solid crystalline salt was formed. […]

[5] = background, from references; cited from earlier work
[6] = cited from earlier work; for pKa (first value): acid or acid salt used for salt preparation
[7] = Exposure of hygroscopic salts to atmospheric air
[8] = background statement; cited from earlier work
[9] = End, 8 days at 65° C. in glass vial (air)

What does the source list for `CCOC(=O)[C@@H](N)Cc1ccc(O)c(O)c1.CCOC(=O)[C@@H](N)Cc1ccc(O)c(O)c1.O.O.O=C(O)/C=C/C(=O)O` [Example 25, LDEE Fumarate Dihydrate]?
Color stability at RH = 80% ([1]; RH = 80%): >48 h; Mean water absorption rate at RH = 80% ([1]; RH = 80%): 0.0004 mol/kg/h; water absorption at RH=80% (in words) ([1]; RH = 80%): did not absorb water; Material appearance after 24 hrs at RH = 80% ([1]; RH = 80%): White flowable powder; Weight gain during 24 hrs at RH = 80%,% ([1]; RH = 80%): 0.04%; hygroscopicity (in words) [1]: non-hygroscopic; weight gain in hygroscopicity test [1]: 0.04%; appearance after exposure in a humidity chamber ([1]; more than 48 hrs): white flowable powder; Assay LDEE (%) [2, 9]: 75.0%; L-DOPA (%) [2, 9]: 0.27%; LD-LDEE (%) [2, 9]: 0.03%; Unknown RRT = 0.72 (%) [2, 9]: 0.09%; cyc.L-DOPA (%) [2, 9]: L.T. 0.03%; Assay LDEE (%) ([2]; Start): 75.0%; L-DOPA (%) ([2]; Start): 0.11%; LD-LDEE (%) ([2]; Start): L.T. 0.03%; pH of water solution [3]: 5.5; delta pKa pKaLDEE − pKaacid (first value) [4]: 4.21; delta pKa pKaLDEE − pKaacid (second value) [4]: 2.7

For `CCOC(=O)[C@@H](N)Cc1ccc(O)c(O)c1.Cl` [hydrochloride salt of LDEE], which “hygroscopicity (in words)” value [5] is on record?
The value was “extremely hygroscopic”.

With `CCCCCCCCCCCCCCCCCC(=O)O` [Stearic acid] as the compound, how does the “pKa (first value)” value [6] read?
The value was “˜4.8”.

For `CCCCCCCCCCCCCCCC(=O)O` [Palmitic acid], which DpKa [4] is on record?
Its DpKa is 2.4.

What about the “pKa (first value)” value [6] of the same compound?
The value was “˜4.8”.

And the pKa [6]?
The pKa was 4.8.

Which “pKa (first value)” value [6] does the source give for `O=C(O)CCCc1ccccc1` [Phenyl Butyric acid] here?
Its value is 4.76.

Which results are given for `CCOC(=O)[C@@H](N)Cc1ccc(O)c(O)c1.CS(=O)(=O)O` [Example 3, LDEE Mesylate]?
Color stability at RH = 80% ([1]; RH = 80%): >24 h; Mean water absorption rate at RH = 80% ([1]; RH = 80%): 0.405 mol/kg/h; Material appearance after 24 hrs at RH = 80% ([1]; RH = 80%): Syrup; Weight gain during 24 hrs at RH = 80%,% ([1]; RH = 80%): 17.5%; hygroscopicity (in words) [1]: hygroscopic; weight gain in hygroscopicity test [1]: 17.5%; delta pKa pKaLDEE − pKaacid (first value) [4]: 6.04; behaviour in atmospheric air (in words) [7]: deliquescent

With `CC(=O)O.CCOC(=O)[C@@H](N)Cc1ccc(O)c(O)c1` [Example 2, LDEE Acetate] as the compound, how does the “Color stability at RH = 80%” value ([1]; RH = 80%) read?
Its value is 1.5 h.

And the “Mean water absorption rate at RH = 80%” value ([1]; RH = 80%)?
The value was 0.155 mol/kg/h.

And the “Material appearance after 24 hrs at RH = 80%” value ([1]; RH = 80%)?
Its value is “Semi-solid melt”.

And the “Weight gain during 24 hrs at RH = 80%,%” value ([1]; RH = 80%)?
The value was 6.7%.

And the “hygroscopicity (in words)” value [1]?
Its value is “hygroscopic”.

And the “weight gain in hygroscopicity test” value [1]?
Its value is 6.7%.

And the “delta pKa pKaLDEE − pKaacid (first value)” value [4]?
The value was 2.48.

What about the “behaviour in atmospheric air (in words)” value [7] of the same compound?
Its value is “deliquescent”.

What does the source list for `CCOC(=O)[C@@H](N)Cc1ccc(O)c(O)c1` [LDEE, L-DOPA ethyl ester]?
Color stability at RH = 80%, hrs ([1]; RH = 80%): ˜50 hrs; Mean water absorption rate at RH = 80% ([1]; RH = 80%): 0.005 mol/kg/h; Material appearance after 24 hrs at RH = 80% ([1]; RH = 80%): White flowable powder; Weight gain during 24 hrs at RH = 80%,% ([1]; RH = 80%): 0.24%; hygroscopicity (in words) [1]: not a hygroscopic material; pH of water solution [3]: 8.2; delta pKa pKaLDEE − pKaacid (first value) [4]: 0; hygroscopicity (in words) [5]: non-hygroscopic; aqueous solution pH [8]: 8.2

For `CCCCCCCC/C=C\CCCCCCCC(=O)O` [Oleic acid], which “pKa (first value)” value [6] is on record?
Its value is “˜4.8”.

Which “Color stability at RH = 80%” value ([1]; RH = 80%) does the source give for `CCOC(=O)[C@@H](N)Cc1ccc(O)c(O)c1.CCOC(=O)[C@@H](N)Cc1ccc(O)c(O)c1.O.O.O=C(O)CCC(=O)O` [Example 23, LDEE Succinate Dihydrate] here?
The value was greater than 72 h.

What about the “Mean water absorption rate at RH = 80%” value ([1]; RH = 80%) of the same compound?
The value was 0.006 mol/kg/h.

And the “water absorption at RH=80% (in words)” value ([1]; RH = 80%)?
The value was “did not absorb water”.

And the “Material appearance after 24 hrs at RH = 80%” value ([1]; RH = 80%)?
Its value is “White flowable powder”.

And the “Weight gain during 24 hrs at RH = 80%,%” value ([1]; RH = 80%)?
Its value is 0.27%.

What about the “hygroscopicity (in words)” value [1] of the same compound?
The value was “non-hygroscopic”.

And the “weight gain in hygroscopicity test” value [1]?
The value was 0.27%.

And the “appearance after exposure in a humidity chamber” value ([1]; about 72 hrs)?
Its value is “white flowable powder”.

What about the “Assay LDEE (%)” value [2, 9] of the same compound?
Its value is 73.46%.

And the “L-DOPA (%)” value [2, 9]?
The value was 0.56%.

And the “Unknown RRT = 0.83 (%)” value [2, 9]?
Its value is 0.03%.

What about the “cyc.L-DOPA (%)” value [2, 9] of the same compound?
Its value is 0.03%.

And the “Assay LDEE (%)” value ([2]; Start)?
Its value is 74.1%.

What about the “L-DOPA (%)” value ([2]; Start) of the same compound?
The value was 0.1%.

What about the “pH of water solution” value [3] of the same compound?
The value was 5.8.

And the “delta pKa pKaLDEE − pKaacid (first value)” value [4]?
The value was 3.08.

What about the “delta pKa pKaLDEE − pKaacid (second value)” value [4] of the same compound?
Its value is 1.63.

For `CCCCCCCCCCCCCC(=O)O` [Myristic acid], which “pKa (first value)” value [6] is on record?
The value was “˜4.8”.
